According to paper PMC5007854, “β-Nitrostyrenes as Potential Anti-leishmanial Agents” (Frontiers in Microbiology, 2016):
Converted amounts (≈) assume the structure as drawn. Like-named read-outs stand apart in the source and are kept apart here. Blank lines part the entries; values can stand above or below the compound they belong to.

Columns and labels:
[1] = system: Escherichia coli ATCC 25922; test: Broth microdilution antibacterial susceptibility (MIC/MBC); assay type: cell-based; details: for MIC / MBC: Escherichia coli; for MIC: ATCC25922, 24 h
Text: (§1) One reference each of the following species was used for their in vitro susceptibility to β-nitrostyrene in this study: Staphylococcus aureus ATCC 29213, Staphylococcus epidermidis ATCC 14990, Escherichia coli ATCC 25922, Pseudomonas aeruginosa ATCC 27853, Candida albicans ATCC 90028, Candida glabrata ATCC 90030, Aspergillus fumigatus ATCC 16424 and Aspergillus niger ATCC 16404. These strains were procured from the American Type Culture Collection (ATCC, Manassas, VA, USA).
(§2) The antibacterial and antifungal activities of the β-nitrostyrenes were performed by broth microdilution methods as per the guidelines of Clinical and Laboratory Standard Institute (Wayne, [1998], [2008a],[b],[c]) by using Mueller-Hinton broth (MHB; Becton-Dickinson, Cockeysville, MD, USA) supplemented with calcium (25 mg/L) and magnesium (12.5 mg/L) for bacterial strains while as RPMI 1640 medium with L-glutamine and without sodium bicarbonate, buffered to pH 7.0 with 0.165 M 3-(N-morpholino) propanesulfonic acid (MOPS; both from Sigma) was used for fungal strains. Stock solutions were prepared in 100% dimethyl sulfoxide (DMSO; Sigma; distilled water was used for ciprofloxacin), with a final DMSO concentration of 1% (vol. per vol.) and two-fold serial dilutions were prepared in media in amounts of 100 μL per well in 96-well U-bottom microtiter plates (Tarsons, Kolkata, India) to yield twice the final concentration required for testing, which ranged from 64 to 0.12 μg/mL for β-nitrostyrenes and 16 to 0.03 μg/mL for ciprofloxacin as well as amphotericin B. Stock inoculum suspensions of the bacteria, Candida species and Aspergillus species were prepared in sterile normal saline (0.85%) containing 0.05% polysorbate 20 (NST) from overnight (3 to 5-day old for Aspergillus species) strains grown on Trypticase soy agar (TSA; Becton-Dickinson) and potato dextrose agar (Difco Laboratories, Detroit, MI, USA) respectively at 35°C. Inocula were verified for each assay by plating onto agar plates for colony enumeration. These suspensions were further diluted in the respective test medium and a 100 μl volume of this diluted inoculum was added to each well of the plate, resulting in a final inoculum concentration of approximately 5 × 10^5 CFU/mL for bacter1ia, (Wayne, [2008a]) approximately 2.5 × 10^4 CFU/ml for Candida species (Pfaller et al., [2004]) while as 0.4 × 10^4 to 5 × 10^4 CFU/mL for Aspergillus species (Wayne, [2008c]). Untreated growth control, vehicle control (DMSO) and sterility control wells were included for each isolate tested. Ciprofloxacin and amphotericin B served as the standard drug controls for bacterial and fungal strains, respectively. The microtiter plates were incubated at 35°C for 24 h for bacterial strains and 48 h for fungal strains. The plates were read visually and the minimum inhibitory concentration (MIC) was defined as the lowest concentration of test sample that prevented visible growth with respect to the growth control.
(§3) The minimum bactericidal concentration (MBC) and minimum fungicidal concentration (MFC) were determined by plating 100 μl volumes on agar plates from the wells showing no visible growth (clear MIC well). The plates were incubated as described above in MIC measurements. […] All experiments were conducted twice in duplicates on separate occasions with freshly prepared inoculums and stock solutions.

[2] = system: Pseudomonas aeruginosa ATCC 27853; test: as above; assay type: cell-based; details: for MIC / MBC: Pseudomonas aeruginosa; for MIC: ATCC27853, 24 h
Text: as §1, §2, §3

[3] = system: Staphylococcus aureus ATCC 29213; test: as above; assay type: cell-based; details: Staphylococcus aureus; for MIC: ATCC29213, 24 h, broth microdilution, 35°C, 24 h, read-out: MIC, Sa ATCC 29213
Text: as §1, §2, §3

[4] = system: Staphylococcus epidermidis ATCC 14990; test: as above; assay type: cell-based; details: for MIC / MBC: Staphylococcus epidermidis; for MIC: ATCC14990, 24 h
Text: as §1, §2, §3

[5] = system: Aspergillus fumigatus ATCC 16424; test: Broth microdilution antifungal susceptibility (MIC/MFC); assay type: cell-based; details: for MIC / MFC: Aspergillus fumigatus; for MIC: ATCC16424, 48 h
Text: as §1, §2, §3

[6] = system: Aspergillus niger ATCC 16404; test: as above; assay type: cell-based; details: for MIC / MFC: Aspergillus niger; for MIC: ATCC16404, 48 h
Text: as §1, §2, §3

[7] = system: Candida albicans ATCC 90028; test: as above; assay type: cell-based; details: for MIC / MFC: Candida albicans; for MIC: ATCC90028, 48 h
Text: as §1, §2, §3

[8] = system: Candida glabrata ATCC 90030; test: as above; assay type: cell-based; details: Nakaseomyces glabratus; for MIC: ATCC90030, 48 h, broth microdilution, 35°C, 48 h, read-out: MIC, Cg ATCC 90030
Text: as §1, §2, §3

[9] = system: L. donovani promastigotes; test: Anti-leishmanial screening at 100 μM, parasite viability by microscopy; assay type: cell-based, Leishmania donovani; details: for Anti-leishmanial activity, in words (SAR discussion): L. donovani promastigotes
Method: L. donovani parasites (MHOM/IN/83/AG83) were maintained in vivo in BALB/c mice. Promastigotes were routinely cultured at 22°C in medium M199 supplemented with 10% heat inactivated fetal bovine serum (FBS, HiMedia Laboratories, Mumbai, India), penicillin 100 (IU/ml), streptomycin (100 μg/ml). Log phase promastigotes were sub-cultured every 72–96 h, the inoculum being 2 × 10^6 cells/ml (Afrin et al., [2002]).
Nitrostyrine series were screened for their antileishmanial activity against L. donovani promastigotes in vitro. Promastigotes of L. donovani (2 × 10^6 cells/mL) in M199 medium were incubated at 22°C for 72 h with each compound at a concentration of 100 μM. Amphotericin B (AmB) served as reference drug, 0.2% DMSO was used as solvent control. Parasites with media alone were taken as control. Parasite viability was determined microscopically after 72 h (Islamuddin et al., [2014b]).

[10] = broth microdilution, 35°C, 24 h
[11] = broth microdilution, 35°C, 48 h
[12] = broth microdilution, 35°C, 24 h, read-out: MIC, Ec ATCC 25922
[13] = ATCC25922, ≥99.9% reduction of original inoculum, read-out: MBC, Ec ATCC 25922
[14] = broth microdilution, 35°C, 24 h, read-out: MIC, Pa ATCC 27853
[15] = ATCC27853, ≥99.9% reduction of original inoculum, read-out: MBC, Pa ATCC 27853
[16] = ATCC29213, ≥99.9% reduction of original inoculum, read-out: MBC, Sa ATCC 29213
[17] = broth microdilution, 35°C, 24 h, read-out: MIC, Se ATCC 14990
[18] = ATCC14990, ≥99.9% reduction of original inoculum, read-out: MBC, Se ATCC 14990
[19] = broth microdilution, 35°C, 48 h, read-out: MIC, Af ATCC 16424
[20] = ATCC16424, ≥99.9% reduction of original inoculum, read-out: MFC, Af ATCC 16424
[21] = broth microdilution, 35°C, 48 h, read-out: MIC, An ATCC 16404
[22] = ATCC16404, ≥99.9% reduction of original inoculum, read-out: MFC, An ATCC 16404
[23] = broth microdilution, 35°C, 48 h, read-out: MIC, Ca ATCC 90028
[24] = ATCC90028, ≥99.9% reduction of original inoculum, read-out: MFC, Ca ATCC 90028
[25] = ATCC90030, ≥99.9% reduction of original inoculum, read-out: MFC, Cg ATCC 90030

SMILES: O=[N+]([O-])/C=C/c1ccc([N+](=O)[O-])cc1 [Compound 7, 1-nitro-4-((E)-2-nitrovinyl) benzene]
MIC ([1]; read-out: MIC, Ec ATCC 25922, broth microdilution, 35°C, 24 h): 16 to 32 µg/mL (≈ 82.4 to 165 µM)
MBC ([1]; ATCC25922, read-out: MBC, Ec ATCC 25922): 32 µg/mL (≈ 165 µM)
MIC, Ec ATCC 25922 [1, 10]: 16 µg/mL (≈ 82.4 µM)
MIC ([2]; read-out: MIC, Pa ATCC 27853, broth microdilution, 35°C, 24 h): 16 to 32 µg/mL (≈ 82.4 to 165 µM)
MBC ([2]; ATCC27853, read-out: MBC, Pa ATCC 27853): 32 µg/mL (≈ 165 µM)
MIC, Pa ATCC 27853 [2, 10]: 16 µg/mL (≈ 82.4 µM)
MBC ([3]; ATCC29213, read-out: MBC, Sa ATCC 29213): 8 µg/mL (≈ 41.2 µM)
MIC ([4]; read-out: MIC, Se ATCC 14990, broth microdilution, 35°C, 24 h): 2 to 16 µg/mL (≈ 10.3 to 82.4 µM)
MBC ([4]; ATCC14990, read-out: MBC, Se ATCC 14990): 4 µg/mL (≈ 20.6 µM)
MIC, Se ATCC 14990 [4, 10]: 4 µg/mL (≈ 20.6 µM)
MIC ([5]; read-out: MIC, Af ATCC 16424, broth microdilution, 35°C, 48 h): 4 to 8 µg/mL (≈ 20.6 to 41.2 µM)
MFC ([5]; ATCC16424, read-out: MFC, Af ATCC 16424): 4 µg/mL (≈ 20.6 µM)
MIC, Af ATCC 16424 [5, 11]: 4 µg/mL (≈ 20.6 µM)
MIC ([6]; read-out: MIC, An ATCC 16404, broth microdilution, 35°C, 48 h): 2 to 4 µg/mL (≈ 10.3 to 20.6 µM)
MFC ([6]; ATCC16404, read-out: MFC, An ATCC 16404): 2 µg/mL (≈ 10.3 µM)
MIC, An ATCC 16404 [6, 11]: 2 µg/mL (≈ 10.3 µM)
MIC ([7]; read-out: MIC, Ca ATCC 90028, broth microdilution, 35°C, 48 h): 4 to 32 µg/mL (≈ 20.6 to 165 µM)
MFC ([7]; ATCC90028, read-out: MFC, Ca ATCC 90028): 4 µg/mL (≈ 20.6 µM)
MIC, Ca ATCC 90028 [7, 11]: 4 µg/mL (≈ 20.6 µM)
MFC ([8]; ATCC90030, read-out: MFC, Cg ATCC 90030): 4 µg/mL (≈ 20.6 µM)
Parasite viability after treatment ([9]; 100 μM, 72 h, phase contrast microscope): All the parasites were found to be dead

SMILES: CC/C(=C\c1ccc(OC)cc1)[N+](=O)[O-] [Compound 15, 1-methoxy-4-((E)-2-nitrobut-1-enyl) benzene]
MIC [1, 12]: > 64 µg/mL
MBC [1, 13]: > 64 µg/mL
MIC [2, 14]: > 64 µg/mL
MBC [2, 15]: > 64 µg/mL
MIC [3]: 16 µg/mL (≈ 77.2 µM)
MBC [3, 16]: 32 µg/mL (≈ 154 µM)
MIC [4, 17]: 16 µg/mL (≈ 77.2 µM)
MBC [4, 18]: 16 µg/mL (≈ 77.2 µM)
MIC [5, 19]: 8 µg/mL (≈ 38.6 µM)
MFC [5, 20]: 16 µg/mL (≈ 77.2 µM)
MIC [6, 21]: 8 µg/mL (≈ 38.6 µM)
MFC [6, 22]: 8 µg/mL (≈ 38.6 µM)
MIC [7, 23]: 32 µg/mL (≈ 154 µM)
MFC [7, 24]: 32 µg/mL (≈ 154 µM)
MIC [8]: 16 µg/mL (≈ 77.2 µM)
MFC [8, 25]: 16 µg/mL (≈ 77.2 µM)
Anti-leishmanial activity, in words (SAR discussion) [9]: reduced the activity

MIC [1, 12]: > 64 µg/mL
MIC [2, 14]: > 64 µg/mL
MIC [3]: 8 µg/mL (≈ 38.6 µM)
MIC [4, 17]: 8 µg/mL (≈ 38.6 µM)
MIC [5, 19]: > 64 µg/mL
MIC [6, 21]: 64 µg/mL (≈ 309 µM)
MIC [7, 23]: > 64 µg/mL
MIC [8]: > 64 µg/mL
melting point: 138 to 140 °C
SMILES: CC/C(=C(/C)c1cccc(O)c1)[N+](=O)[O-] [Compound 26, 3-((E)-3-nitropent-2-en-2-yl)phenol]
MBC [1, 13]: > 64 µg/mL
MBC [2, 15]: > 64 µg/mL
MBC [3, 16]: 16 µg/mL (≈ 77.2 µM)
MBC [4, 18]: 8 µg/mL (≈ 38.6 µM)
MFC [5, 20]: > 64 µg/mL
MFC [6, 22]: > 64 µg/mL
MFC [7, 24]: > 64 µg/mL
MFC [8, 25]: > 64 µg/mL
Anti-leishmanial activity, in words (SAR discussion) [9]: loss of activity

SMILES: CC/C(=C\c1ccc(OC)c(OC)c1)[N+](=O)[O-] [Compound 24, 1,2-dimethoxy-4-((E)-2-nitrobut-1-enyl) benzene]
Anti-leishmanial activity, in words (SAR discussion) [9]: inactive
melting point: 78 to 80 °C
